Experimental data taken from paper PMC7332124, “Design, One Pot Synthesis and Molecular Docking Studies of Substituted-1H-Pyrido[2,1-b] Quinazolines as Apoptosis-Inducing Anticancer Agents” (Asian Pacific Journal of Cancer Prevention : APJCP, 2020).
Entries after “also recorded” stand apart in the source; their conditions may differ.

Key:
Assay type in all cases: cell-based, human
A549 cells [1] = test: Acridine orange/ethidium bromide (AO/EB) staining; conditions: 0.5, 1, 2.5 and 5 µM, 72 h
Protocol: A549 cells were seeded at a concentration of 1.2x10^5 cells/ml and treated with various concentrations of compound 4q and the plates were incubated for 72 h. Then, 100 µl from fluorescent dyes comprising both Acridine Orange (Helfrich et al., 2016) and Ethidium Bromide (Vundru et al., 2013) were added into each well in equal volumes (10 µg/ml) respectively (Nekkanti et al., 2017), then the cells were Immediately visualized under fluorescence microscope with excitation (488 nm) and emission (550 nm) at 200X magnification.

A549 cells [2] = test: Cell cycle analysis (propidium iodide, flow cytometry)
Protocol: In order to reveal whether arrest of cell cycle was mechanistically responsible for sensitizing lung cancer cells towards apoptosis, the flow cytometric analysis was performed to analyse the distribution of the cell population in various cell cycle phases (Mani et al., 2017). Here, A549 cancer cells were incubated with compound 4q at various concentrations ranging from 0.5 to 5 µM for 48 h. Untreated and treated cells were harvested, washed and fixed overnight in 70% ethanol in PBS at -20 °C. Fixed cells were pelleted and stained with cell cycle analysis reagent propidium iodide (50 μg/ml) with RNase A for 20 min at 37 °C in dark and about 10,000 events were acquired and analyzed on a flow cytometer (Kumar et al., 2018a).

A549 cells [3] = test: Annexin V-FITC/PI apoptosis assay (flow cytometry); conditions: 72 h
From the text: A fundamental part of apoptosis is the flipping of phosphatidyl serine (PS) from the inner surface to the outer surface of the plasma layer of the cells. PS is a component of phospholipid usually located on the cytoplasmic surface of the cell layer in viable cells. When the apoptotic condition is initiated in a cell, PS is no more restricted to the cytosolic region and will flip on the surface of the cell. Translocation of PS is considered to be a hall mark of apoptosis (Zhu et al., 2015). To experimentally address this phenomenon briefly, 1 X 10^5 cells were seeded in a 12-well plate and treated with different concentration of compound 4q and incubated for 72 h. Then untreated and treated cells were harvested and the cells were processed with annexin V-FITC and Propidium Iodide (PI) staining (Bio Legend), according to the manufacturer’s instructions. Further, early/late apoptosis and necrosis parameters were analyzed with quadrant statistics on propidium iodide-negative cells, fluorescein positive cells and propidium iodide-positive cells, respectively.

NCI-H460 = test: MTT cytotoxicity assay; conditions: Homo sapiens, NCI-H460 lung carcinoma, 72 h, read-out: In vitro Inhibitory Concentration (IC50)
Protocol: (§1) Various cancer cells were used to screen anticancer activity of newly synthesized compounds. Lung (A549 and NCI-H460), colon (HCT-15 and HT-29), prostate (DU-145) cancer cells maintained in RPMI-1640 media while normal lung fibroblasts cell line (HFL-1) were maintained in F-12 k medium supplemented with 10% fetal bovine serum (FBS) with 1% antibiotic-antimycotic solution (Sigma). Cells were maintained in 5% CO2 with 98% relative humidity at 37 °C in incubator. When 80-90% of confluency is reached, they were sub-cultured using 0.25% trypsin/1 mM EDTA solution for further passage. The compounds in this series were dissolved in DMSO (1 %) to prepare the stock solution of 10 mM. Further dilutions were made accordingly with respective media to obtain the required concentrations.
(§2) MTT assay measures the reduction of MTT (3-(4,5-dimethylthiazol- 2-yl)-2,5-diphenyl tetrazolium bromide) by mitochondrial succinate dehydrogenase enzyme to insoluble formazan crystals. Since reduction of MTT occurs only in metabolically active cells, the level of activity is the measure of the viability of the cells.(Pordeli et al., 2017). Briefly, cells were plated in 96-well plates at a density of 3,000 to 6,000 cells per well in 100 µl of complete medium and allowed to grow overnight. Then the cells were treated with different concentrations of the synthesized compounds and incubated for 72 h. After the treatment, 100 µl of MTT (0.5 mg/ml) was added and incubated at 37 °C for 4 h. Then MTT reagent was aspirated and formazan crystals formed were dissolved by the addition of 200 µL of DMSO for 20 min at 37 °C. The formazan product quantity was measured by using a spectrophotometric microtiter plate reader (Spectra Max, M4 Molecular devices, USA) at 570 nm wavelength(Nekkanti et al., 2017).

A549 = test: MTT cytotoxicity assay
Protocol: as §1, §2

[4] = tested on: HFL-1 normal lung fibroblasts; test: MTT cytotoxicity assay; conditions: Homo sapiens, HFL1, 72 h, read-out: In vitro Inhibitory Concentration (IC50)
Protocol: as §1, §2

HT-29 = test: MTT cytotoxicity assay; conditions: Homo sapiens, HT-29 colorectal cancer, 72 h, read-out: In vitro Inhibitory Concentration (IC50)
Protocol: as §1, §2

HCT-15 = test: MTT cytotoxicity assay; conditions: Homo sapiens, HCT-15 colon cancer, 72 h, read-out: In vitro Inhibitory Concentration (IC50)
Protocol: as §1, §2

DU-145 = test: MTT cytotoxicity assay; conditions: Homo sapiens, DU-145 prostate cancer, 72 h, read-out: In vitro Inhibitory Concentration (IC50)
Protocol: as §1, §2

A549 cells [5] = test: Morphological observation, phase contrast microscope; conditions: 0.5, 1, 2.5 and 5 µM, 72 h
Protocol: A549 cells were plated in 12 well culture plates with a cell density of 1.2x10^5 cells/ml and allowed to adhere for 24 h. Then the cells were incubated with 0.5, 1, 2.5 and 5 µM concentrations of compound 4q. After 72 h treatment, cells were monitored for the morphological changes and the images were captured under a phase contrast microscope (Nikon, Inc. Japan) at 200X magnification.

A549 cells [6] = test: Mitochondrial membrane potential (JC-1, flow cytometry); conditions: 0.5-5 µM, 72 h
Protocol: The cyanine dye JC-1 (5,5′,6,6′-tetrachloro-1,1′,3,3′-tetraethylbenzimidazolylcarbocyanine iodide) is a cell-penetrating dye that facilitates discrimination of energized and de energized mitochondria thus, high mitochondrial potential shifts its emission fluorescence from green to red (Vundru et al., 2013).This phenomenon was assessed by flow cytometry (FACS). A549 cells (1.5x10^6 cells/ml) were seeded in 12 well plates and allowed to adhere for overnight. Then the cells were incubated with compound 4q at 0.5, 1, 2.5 and 5 µM concentrations for 72 h. Cells were collected and washed with PBS and resuspended in solution of JC- 1 (1 µM) and incubated for 30 min in incubator at 37 °C. The cells were washed twice with PBS and cells were trypsinized, centrifuged and 10,000 events were analyzed by flow cytometer (BD FACSVerse™, USA).

For `C1=CC2=NC3=C(CCCC3)C(c3cn(Cc4ccccc4)c4ccccc34)N2C=C1` (centres unmarked) [Compound 4i, 11-(1-benzyl-1H-indol-3-yl)-2,3,4, 11-tetrahydro-1H-pyrido [2,1-b] quinazoline], the “apoptotic morphology by AO/EB staining” value (A549 cells [1]) was “induced apoptosis in A549 lung cancer cells”, the “percentage of cells in G0/G1” value (A549 cells [2]; 5 µM, control 63.53%) was 80.02% and the “cell cycle phase arrest” value (A549 cells [2]; 0.5 to 5 µM) was “arrests the A549 cancer cell lines at the G0/G1 phase; also recorded: G0/G1 arrest of the cell cycle”. The “percentage of early apoptotic cells (EA; AV+/PI-)” value (A549 cells [3]; 5 µM, control 4.08 %) was 26.90%, the “apoptosis induction (Annexin V-FITC/PI)” value (A549 cells [3]; 0.5 to 5 µM) was “significant early apoptosis” and the IC50 (NCI-H460) was 5.53 ± 0.49 µM. For the same compound, the IC50 (A549; Homo sapiens, A549 adenocarcinoma (lung), MTT, 72 h, read-out: In vitro Inhibitory Concentration (IC50)) was 4.57 ± 0.25 µM, the “selectivity towards the cancer cells” value (A549; IC50 in HFL-1 normal fibroblasts versus lung cancer cells) was “approximately 2 fold” and the IC50 [4] was 8.7 ± 0.36 µM. It also gave an IC50 (HT-29) of 11.57 ± 0.04 µM, an IC50 (HCT-15) of 11.3 ± 0.25 µM and an IC50 (DU-145) of 9.15 ± 0.09 µM. The “morphological changes (phase contrast)” value (A549 cells [5]) was “shrinkage of cells and resulted in increased number of dead cells with increase in concentration” and the “mitochondrial membrane potential (ΔΨm)” value (A549 cells [6]) was “significant collapse in the ΔΨm”.
